From PubChem BioAssay AID1963425 (Molecular Pharmacology Branch, DTP, NCI, 2024)
Blank lines part the entries; values can stand above or below the compound they belong to.

Tested on: 323965-272-R-J2-PDC complex spheroid growth, % test/control
Test: Anticancer human tumor 323965-272-R-J2-PDC patient-derived pancreatic carcinoma cell line growth inhibition [Asc]
Details: for IC50: curve of first compound; for viability, T/C: stronger effect = lower value
In short: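 Tumor cells were grown as complex spheroids with human endothelial cells (HUVEC) and human mesenchymal stem cells as stroma. Agents were tested alone and in combination, in half-log steps down from the clinical Cmax, or from 10 microM where Cmax was unknown.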

[1] = second compound 0.00316 µM, first compound 0.0316 µM
[2] = second compound 0.00316 µM, first compound 0.1 µM
[3] = second compound 0.01 µM, first compound 0.0316 µM
[4] = second compound 0.01 µM, first compound 0.1 µM
[5] = second compound 0.0316 µM, first compound 0.0316 µM
[6] = second compound 0.0316 µM, first compound 0.1 µM
[7] = second compound 0.1 µM, first compound 0.0316 µM
[8] = second compound 0.1 µM, first compound 0.1 µM
[9] = second compound 0.316 µM, first compound 0.0316 µM
[10] = second compound 0.316 µM, first compound 0.1 µM
[11] = second compound 1 µM, first compound 0.0316 µM
[12] = second compound 1 µM, first compound 0.1 µM
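Note: compound exposure lasted 7 days starting three days after spheroid seeding.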
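Throughout, for viability, T/C: 100% = DMSO vehicle control wells with viability set relative to vehicle.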

IC50 (second compound 0.00949 µM): 1.56 µM
IC50 (second compound 0.03 µM): > 3 µM
IC50 (second compound 0.0949 µM): > 3 µM
IC50 (second compound 0.3 µM): 1.7 µM
IC50 (second compound 0.949 µM): 1.64 µM
IC50 (second compound 3 µM): 0.929 µM
Structure (SMILES): Cc1nc(N2CCC3(CC2)COC(C)C3N)c(CO)nc1Sc1ccnc(N)c1Cl (stereo unspecified) + CCN1C(C(=O)NC23CCC(C(=O)O)(CC2)CC3)C(c2cccc(Cl)c2F)C2(C(=O)Nc3cc(Cl)ccc32)C12CCCCC2
viability, T/C (second compound 0.00949 µM, first compound 0.00949 µM): 107%
viability, T/C (second compound 0.00949 µM, first compound 0.03 µM): 89%
viability, T/C (second compound 0.00949 µM, first compound 0.0949 µM): 85.4%
viability, T/C (second compound 0.00949 µM, first compound 0.3 µM): 62.7%
viability, T/C (second compound 0.00949 µM, first compound 0.949 µM): 57.3%
viability, T/C (second compound 0.00949 µM, first compound 3 µM): 42.9%
viability, T/C (second compound 0.03 µM, first compound 0.00949 µM): 104%
viability, T/C (second compound 0.03 µM, first compound 0.03 µM): 91.8%
viability, T/C (second compound 0.03 µM, first compound 0.0949 µM): 80.4%
viability, T/C (second compound 0.03 µM, first compound 0.3 µM): 67.8%
viability, T/C (second compound 0.03 µM, first compound 0.949 µM): 59%
viability, T/C (second compound 0.03 µM, first compound 3 µM): 50.4%
viability, T/C (second compound 0.0949 µM, first compound 0.00949 µM): 109%
viability, T/C (second compound 0.0949 µM, first compound 0.03 µM): 84.9%
viability, T/C (second compound 0.0949 µM, first compound 0.0949 µM): 86.1%
viability, T/C (second compound 0.0949 µM, first compound 0.3 µM): 65.3%
viability, T/C (second compound 0.0949 µM, first compound 0.949 µM): 61.7%
viability, T/C (second compound 0.0949 µM, first compound 3 µM): 51.2%
viability, T/C (second compound 0.3 µM, first compound 0.00949 µM): 102%
viability, T/C (second compound 0.3 µM, first compound 0.03 µM): 86.3%
viability, T/C (second compound 0.3 µM, first compound 0.0949 µM): 82.7%
viability, T/C (second compound 0.3 µM, first compound 0.3 µM): 68.6%
viability, T/C (second compound 0.3 µM, first compound 0.949 µM): 54.2%
viability, T/C (second compound 0.3 µM, first compound 3 µM): 44.6%
viability, T/C (second compound 0.949 µM, first compound 0.00949 µM): 105%
viability, T/C (second compound 0.949 µM, first compound 0.03 µM): 95.8%
viability, T/C (second compound 0.949 µM, first compound 0.0949 µM): 88.3%
viability, T/C (second compound 0.949 µM, first compound 0.3 µM): 63.6%
viability, T/C (second compound 0.949 µM, first compound 0.949 µM): 57.8%
viability, T/C (second compound 0.949 µM, first compound 3 µM): 44.2%
viability, T/C (second compound 3 µM, first compound 0.00949 µM): 91.2%
viability, T/C (second compound 3 µM, first compound 0.03 µM): 83.3%
viability, T/C (second compound 3 µM, first compound 0.0949 µM): 71.7%
viability, T/C (second compound 3 µM, first compound 0.3 µM): 60%
viability, T/C (second compound 3 µM, first compound 0.949 µM): 53.6%
viability, T/C (second compound 3 µM, first compound 3 µM): 35.4%

IC50 (second compound 0.00316 µM): < 0.000316 µM
IC50 (second compound 0.01 µM): > 0.1 µM
IC50 (second compound 0.0316 µM): > 0.1 µM
IC50 (second compound 0.1 µM): > 0.1 µM
IC50 (second compound 0.316 µM): > 0.1 µM
IC50 (second compound 1 µM): > 0.1 µM
Structure (SMILES): Cn1ncnc1[C@H]1c2n[nH]c(=O)c3cc(F)cc(c23)N[C@@H]1c1ccc(F)cc1 + CNC(C)C(=O)NC1CN(S(=O)(=O)c2cccc(S(=O)(=O)N3CCC4CCC(C(=O)NC(c5ccccc5)c5ccccc5)N4C(=O)C(NC(=O)C(C)NC)C3)c2)CCC2CCC(C(=O)NC(c3ccccc3)c3ccccc3)N2C1=O
viability, T/C (second compound 0.00316 µM, first compound 0.000316 µM): 49.4%
viability, T/C (second compound 0.00316 µM, first compound 0.001 µM): 49.2%
viability, T/C (second compound 0.00316 µM, first compound 0.00316 µM): 46.2%
viability, T/C (second compound 0.00316 µM, first compound 0.01 µM): 47.6%
viability, T/C [1]: 49.5%
viability, T/C [2]: 47.7%
viability, T/C (second compound 0.01 µM, first compound 0.000316 µM): 119%
viability, T/C (second compound 0.01 µM, first compound 0.001 µM): 92.3%
viability, T/C (second compound 0.01 µM, first compound 0.00316 µM): 97.3%
viability, T/C (second compound 0.01 µM, first compound 0.01 µM): 90.1%
viability, T/C [3]: 87.8%
viability, T/C [4]: 85.5%
viability, T/C (second compound 0.0316 µM, first compound 0.000316 µM): 107%
viability, T/C (second compound 0.0316 µM, first compound 0.001 µM): 93.8%
viability, T/C (second compound 0.0316 µM, first compound 0.00316 µM): 87.6%
viability, T/C (second compound 0.0316 µM, first compound 0.01 µM): 105%
viability, T/C [5]: 92%
viability, T/C [6]: 91%
viability, T/C (second compound 0.1 µM, first compound 0.000316 µM): 94.3%
viability, T/C (second compound 0.1 µM, first compound 0.001 µM): 106%
viability, T/C (second compound 0.1 µM, first compound 0.00316 µM): 112%
viability, T/C (second compound 0.1 µM, first compound 0.01 µM): 97.6%
viability, T/C [7]: 84%
viability, T/C [8]: 91.7%
viability, T/C (second compound 0.316 µM, first compound 0.000316 µM): 103%
viability, T/C (second compound 0.316 µM, first compound 0.001 µM): 89.8%
viability, T/C (second compound 0.316 µM, first compound 0.00316 µM): 101%
viability, T/C (second compound 0.316 µM, first compound 0.01 µM): 92.7%
viability, T/C [9]: 88.2%
viability, T/C [10]: 89%
viability, T/C (second compound 1 µM, first compound 0.000316 µM): 87.5%
viability, T/C (second compound 1 µM, first compound 0.001 µM): 90.7%
viability, T/C (second compound 1 µM, first compound 0.00316 µM): 94.4%
viability, T/C (second compound 1 µM, first compound 0.01 µM): 83.7%
viability, T/C [11]: 89.7%
viability, T/C [12]: 86.3%

IC50 (second compound 0.00316 µM): < 0.0316 µM
IC50 (second compound 0.01 µM): > 10 µM
IC50 (second compound 0.0316 µM): > 10 µM
IC50 (second compound 0.1 µM): > 10 µM
IC50 (second compound 0.316 µM): > 10 µM
IC50 (second compound 1 µM): > 10 µM
Structure (SMILES): O=C(c1cc(Cc2n[nH]c(=O)c3ccccc23)ccc1F)N1CCN(C(=O)C2CC2)CC1 + CNC(C)C(=O)NC1CN(S(=O)(=O)c2cccc(S(=O)(=O)N3CCC4CCC(C(=O)NC(c5ccccc5)c5ccccc5)N4C(=O)C(NC(=O)C(C)NC)C3)c2)CCC2CCC(C(=O)NC(c3ccccc3)c3ccccc3)N2C1=O
viability, T/C [1]: 43.1%
viability, T/C [2]: 45.3%
viability, T/C (second compound 0.00316 µM, first compound 0.316 µM): 41%
viability, T/C (second compound 0.00316 µM, first compound 1 µM): 47.4%
viability, T/C (second compound 0.00316 µM, first compound 3.16 µM): 44.6%
viability, T/C (second compound 0.00316 µM, first compound 10 µM): 36.6%
viability, T/C [3]: 99.4%
viability, T/C [4]: 101%
viability, T/C (second compound 0.01 µM, first compound 0.316 µM): 97.5%
viability, T/C (second compound 0.01 µM, first compound 1 µM): 94.5%
viability, T/C (second compound 0.01 µM, first compound 3.16 µM): 75.9%
viability, T/C (second compound 0.01 µM, first compound 10 µM): 72%
viability, T/C [5]: 101%
viability, T/C [6]: 99.4%
viability, T/C (second compound 0.0316 µM, first compound 0.316 µM): 100%
viability, T/C (second compound 0.0316 µM, first compound 1 µM): 105%
viability, T/C (second compound 0.0316 µM, first compound 3.16 µM): 102%
viability, T/C (second compound 0.0316 µM, first compound 10 µM): 70.7%
viability, T/C [7]: 92.6%
viability, T/C [8]: 91.9%
viability, T/C (second compound 0.1 µM, first compound 0.316 µM): 89.7%
viability, T/C (second compound 0.1 µM, first compound 1 µM): 99.3%
viability, T/C (second compound 0.1 µM, first compound 3.16 µM): 94.5%
viability, T/C (second compound 0.1 µM, first compound 10 µM): 71.9%
viability, T/C [9]: 93.4%
viability, T/C [10]: 89.1%
viability, T/C (second compound 0.316 µM, first compound 0.316 µM): 97.9%
viability, T/C (second compound 0.316 µM, first compound 1 µM): 89.7%
viability, T/C (second compound 0.316 µM, first compound 3.16 µM): 93.7%
viability, T/C (second compound 0.316 µM, first compound 10 µM): 80%
viability, T/C [11]: 94.5%
viability, T/C [12]: 87%
viability, T/C (second compound 1 µM, first compound 0.316 µM): 83.3%
viability, T/C (second compound 1 µM, first compound 1 µM): 93.1%
viability, T/C (second compound 1 µM, first compound 3.16 µM): 89.2%
viability, T/C (second compound 1 µM, first compound 10 µM): 68.3%
